Assay results: patent US20150051203A1, “TRIAZOLE DERIVATIVES AS HSP90 INHIBITORS” (Synta Pharmaceuticals Corp., priority 2012, published 2015)
Read-outs that look alike come from different tables or passages of the source.

What was measured:
[1] = tested on: Her2; assay: Degradation of Her2 in BT-474 cells (Western blot, Method 1); type: cell-based, Human; details: 0.5 μM, overnight
Protocol: BT-474 cells are treated with 0.5 μM, 2 μM, or 5 μM of 17AAG (a positive control) or 0.5 μM, 2 μM, or 5 μM of a compound of the invention overnight in DMEM medium. After treatment, each cytoplasmic sample is prepared from 1×10^6 cells by incubation of cell lysis buffer (#9803, Cell Signaling Technology) on ice for 10 minutes. The resulting supernatant used as the cytosol fractions is dissolved with sample buffer for SDS-PAGE and run on a SDS-PAGE gel, blotted onto a nitrocellulose membrane by using semi-dry transfer. Non-specific binding to nitrocellulose is blocked with 5% skim milk in TBS with 0.5% Tween at room temperature for 1 hour, then probed with anti-Her2/ErB2 mAb (rabbit IgG, #2242, Cell Signaling) and anti-Tubulin (T9026, Sigma) as housekeeping control protein. HRP-conjugated goat anti-rabbit IgG (H+L) and HRP-conjugated horse anti-mouse IgG (H+L) are used as secondary Ab (#7074, #7076, Cell Signaling) and LumiGLO reagent, 20× Peroxide (#7003, Cell Signaling) is used for visualization.
BT-474 cells were treated with 0.5 μM, 2 μM, or 5 μM of 17AAG (a positive control) or 0.5 μM, 2 μM, or 5 μM of a compound of the invention overnight in DMEM medium. After treatment, each cytoplasmic sample was prepared from 1×10^6 cells by incubation of cell lysis buffer (#9803, Cell Signaling Technology) on ice for 10 minutes. […]

[2] = Caco-2 permeability assay; type: in vitro ADME; details: human
Protocol: Caco-2 cells were cultured on 24-well plates at 0.8×10^5 cells/cm^2 for approximately 20 days until TEER values were above 300 Ωcm^2. Caco-2 monolayers were rinsed twice with transport buffer (HBSS supplemented with 10 mM HEPES and 25 mM glucose, pH 7.4) and then pre-incubated for 30 min. Test and control compound solutions were loaded into the donor (A) or acceptor (B) compartments of a 24-well plate and incubated at 37° C. with 5% CO2 and 65% humidity for 2 h. For A to B permeability, the donor wells contained test compound and corresponding acceptor wells contained transport buffer. For B to A permeability, the […]. Atenolol and propranolol were used as low and high permeability compound controls, respectively. Digoxin was used was a P-gp substrate control. Cell viability was tested with Lucifer yellow at the end of the study.
Permeability was calculated as follows:
[formula] PappA to B={0.0005376×([Drug] Acceptor/[Drug] Initial)}
PappB to A={0.0001792×([Drug] Acceptor/[Drug] Initial)}
Polarization Ratio=PappB to A/PappA to B
Polarization ratio >2 considered as an efflux (P-gp) substrate.

[3] = Exploratory small molecule PK study in rats; type: in vivo, male Sprague-Dawley rats; parameters: AUClast: unit not given here; details: rat; for half-life: male, Sprague-Dawley, plasma, read-out: T½ (converted)
Protocol: PK studies were conducted in male Sprague-Dawley rats. One group was dosed by IV (n=2) and another group was dosed orally (n=3). Blood samples were collected in lithium heparin coated microfuge tubes at 5 (IV only), 15, 30 min, 1, 3, 4, 6, 8, 24 h post dose. Samples were then centrifuged under refrigerated conditions and plasma was collected for analysis.
A solvent-based protein precipitation procedure was used to measure the concentration of each compound in plasma and/or whole blood. Samples were analyzed with an Agilent 1100 HPLC (Santa Clara, Calif.) interfaced to an API 4000 tandem mass spectrometer (Applied Biosystems, Foster City, Calif.) using a Synergy, Hydro-RP column (4 μm, 2×50 mm; Phenomenex, Torrance, Calif.) at a flow rate of 0.5 ml/min. Mobile phase consisted of 10 mM ammonium acetate in water (A) and 10 mM ammonium acetate in 95/5 (v/v) methanol/water (B). Total run time was 5 min with the gradient elution. […] All standard curves were fit to a quadratic equation with a weighing factor of 1/(concentration)^2 to calculate compound concentrations.

| Papp A→B at 2 h ([2]; A to B, 2 h, 37° C., pH 7.4) [×10⁻⁶ cm/s] | efflux ratio at 2 h ([2]; pH 7.4, ratio >2 considered as an efflux (P-gp) substrate, read-out: Pol. Ratio B-A/A-B) | half-life ([3]; IV 5 mg/Kg, DPD) [h] | half-life ([3]; PO 25 mg/Kg, D5W) [h] | AUClast ([3]; IV 5 mg/Kg, DPD) | F ([3]; PO 25 mg/Kg D5W vs IV 5 mg/Kg DPD) [%] | AUClast ([3]; PO 25 mg/Kg, D5W) | Compound | degradation of Her2 [1] |
| --- | --- | --- | --- | --- | --- | --- | --- | --- |
| – | – | – | – | – | – | – | C=CCNC1=C2C[C@@H](C)C[C@H](OC)[C@H](O)[C@@H](C)/C=C(\C)[C@H](OC(N)=O)[C@@H](OC)/C=C\C=C(/C)C(=O)NC(=CC1=O)C2=O [Compound 17AAG, 17-allylamino-17-demethoxygeldanamycin] | partial degradation of Her2 |
| 12.4 | 2 | 2.3 | 10.7 | 2.6 | 0.52 | 0.07 | CC(C)c1n[nH]c2cc(O)c(-c3nnc(C(=O)NCC(F)(F)F)n3-c3ccc(N4CCOCC4)cc3)cc12 [Compound 38, 5-(6-hydroxy-3-isopropyl-1H-indazol-5-yl)-4-(4-morpholinophenyl)-N-(2,2,2-trifluoroethyl)-4H-1,2,4-triazole-3-carboxamide] | – |
